Laboratory results taken from article PMC3355094 (PLoS Pathogens, 2012).
Read-outs that look alike come from different tables or passages of the source.

Experiments:
Calreticulin = assay: Literature thermodynamic binding data of lectin-carbohydrate interactions compiled in Table S6 for comparison; conditions not given; parameters: method as in values quoted from other papers; conditions: read-out: KD [μmol]; cited from earlier work
CCL1 = assay: Glycan array analysis of CCL1 (CFG mammalian glycan array V4.2); type: binding, Coprinopsis cinerea; conditions: Alexa Fluor 488 labeled CCL1 200 µg/ml, array V4.2, average of triplicates
Description: (§1) Purified CCL1 and CCL2 were fluorescently labeled with Alexa Fluor 488 (Invitrogen) according to the manufacturer's protocol and used (at a final concentration of 200 µg/ml) to probe versions 4.2 and 3.1, respectively, of the mammalian glycan array offered by Core H of the Consortium for Functional Glycomics (CFG).

CCL2 = assay: Glycan array analysis of CCL2 (CFG mammalian glycan array V3.1); type: binding, Coprinopsis cinerea; conditions: Alexa Fluor 488 labeled CCL2 200 µg/ml, array V3.1, average of triplicates
Description: as §1

Jacalin = assay: Literature thermodynamic binding data of lectin-carbohydrate interactions compiled in Table S6 for comparison; conditions not given; parameters: method as in values quoted from other papers; conditions: read-out: KD [μmol]; cited from earlier work
CCL2 wild-type [1] = biological target: T1, CCL2 wild-type (Coprinopsis cinerea, UniProt B3GA02); type: binding
CCL2 wild-type [2] = biological target: T1, CCL2 wild-type; type: binding; remark: listed apart in the source
RSL = type: binding; conditions: read-out: KD [μmol]; cited from earlier work
[3] = parameters: method as in ref 5 of Table S6 (Turnbull et al. 2004); conditions: ligand GM1os; ref 5 of Table S6 (Turnbull et al. 2004); cited from earlier work
CCL2 (Wild type) = biological target: T2, CCL2 (Wild type) (Coprinopsis cinerea, UniProt B3GA02); assay: biochemical; type: binding
T2 construct: recombinant from E. coli, eight N-terminal His-residues (His8), monomer

MOA = assay: Literature thermodynamic binding data of lectin-carbohydrate interactions compiled in Table S6 for comparison; conditions not given; parameters: method as in values quoted from other papers; conditions: read-out: KD [μmol]; cited from earlier work
WBA II = type: binding; conditions: read-out: KD [μmol]; cited from earlier work
ConA = assay: Literature thermodynamic binding data of lectin-carbohydrate interactions compiled in Table S6 for comparison; conditions not given; parameters: method as in values quoted from other papers; conditions: read-out: KD [μmol]; cited from earlier work
[4] = ligand Glc1,3Man1,2Man1,2Man; ref 2 of Table S6 (Kozlov et al. 2010); cited from earlier work
[5] = parameters: method as in ref 3 of Table S6 (Gupta et al. 2008); conditions: ligand Glc1,3Man1,2ManOMe; ref 3 of Table S6 (Gupta et al. 2008); cited from earlier work
[6] = biological target: Cholera toxin B subunit (CTB); type: binding; conditions: read-out: KD [μmol]; cited from earlier work
[7] = carbohydrate titrated to CCL2 wild-type

T1 sequence (B3GA02 2-142 limits assumed): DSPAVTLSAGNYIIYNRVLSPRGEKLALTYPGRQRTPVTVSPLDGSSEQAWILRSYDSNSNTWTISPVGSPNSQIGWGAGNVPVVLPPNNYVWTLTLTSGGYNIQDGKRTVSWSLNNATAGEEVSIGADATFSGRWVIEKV
T2 sequence (B3GA02 2-142): as the sequence (B3GA02 2-142 limits assumed) above

Row | Molecule | RFU (relative fluorescence units) (CCL1) [RFU] | RFU (relative fluorescence units) (CCL2) [RFU] | other results
1 | CO[C@H]1O[C@H](CO)[C@@H](O)[C@H](O)[C@@H]1O[C@H]1O[C@H](CO)[C@@H](O)[C@H](O[C@H]2O[C@H](CO)[C@@H](O)[C@H](O)[C@H]2O)[C@@H]1O [Glc1,3Man1,2ManOMe, Glcα1,3Manα1,2Manα-OMe (methyl glycoside)] |  |  | Kd (Calreticulin): 1800 nM
2 | [3OSO3]Gal1-4GlcNAc-Sp8 | 110 | 110.8 | 
3 | CO[C@H]1O[C@H](CO)[C@H](O)[C@H](O)[C@H]1O [GalOMe, methyl galactopyranoside] |  |  | Kd (Jacalin): 58000 nM
4 | 6-H2PO3Man-Sp8 | 3 | 118.9 | 
5 | [3OSO3]Gal1-4Glc-Sp8 | 29 | 152.3 | 
6 | Neu5Ac2-6Gal1-4GlcNAc1-2Man1-3(Neu5Ac2-6Gal1-4GlcNAc1-2Man1-6)Man1-4GlcNAc1-4GlcNAc-Sp12 | 122 | 183.9 | 
7 | [3OSO3]Gal1-3GalNAc-Sp8 | 118 | 216.8 | 
8 | CC(=O)N[C@H]1[C@H](O[C@H]2[C@H](O[C@@H]3O[C@@H](C)[C@@H](O)[C@@H](O)[C@@H]3O)[C@@H](NC(C)=O)[C@H](OCCCCCC(=O)O)O[C@@H]2CO)O[C@H](CO)[C@@H](O)[C@@H]1O [GlcNAcβ1,4[Fucα1,3]GlcNAcβ1-sp, GlcNAcβ1,4[Fucα1,3]GlcNAcβ-O(CH2)5COONa] |  |  | NMR titration (CCL2 wild-type [1]; [7]): large chemical shift deviations, slow exchange; ΔH (CCL2 wild-type [2]): -11.9 kcal/mol; −TΔS (CCL2 wild-type [2]): 3.9 kcal/mol
9 | C[C@@H]1O[C@@H](O[C@H]2[C@H](O[C@H]3[C@H](O)[C@@H](O)C(O)O[C@@H]3CO)O[C@H](CO)[C@H](O)[C@@H]2O)[C@@H](O)[C@H](O)[C@@H]1O (stereo partly shown) [2-Fucosyllactose, 2'-fucosyllactose] |  |  | Kd (RSL): 250 nM
10 | OC[C@H]1O[C@H](O[C@@H]2[C@H](O)[C@@H](O[C@@H]3[C@@H](O[C@@H]4C(O)O[C@H](CO)[C@@H](O)[C@@H]4O)O[C@H](CO)[C@@H](O)[C@@H]3O)O[C@H](CO)[C@H]2O)[C@H](O)[C@@H](O)[C@@H]1O (stereo partly shown) [Glcα1,3Manα1,2Manα1,2Man, Glcα1,3Manα1,2Manα1,2Man tetrasaccharide] |  |  | Kd (Calreticulin): 770 nM
11 | Cholera toxin B subunit (CTB): cholera-toxin B subdomain |  |  | –TΔS [3]: 7.36 kcal/mol; –ΔH [3]: 17.3 kcal/mol
12 | [6OSO3]Gal1-4[6OSO3]Glc-Sp8 | 20 | 298.1 | 
13 | [3OSO3][6OSO3]Gal1-4[6OSO3]GlcNAc-Sp0 | 3 | 367.7 | 
14 | Neu5Acα2,3Galβ1,4Glc |  |  | NMR titration (CCL2 wild-type [1]; [7]): no binding
15 | CO[C@@H]1O[C@H](CO)[C@@H](O)[C@H](O[C@@H]2O[C@@H](C)[C@@H](O)[C@@H](O)[C@@H]2O)[C@H]1NC(C)=O [Fucα1,3GlcNAc-OMe] |  |  | NMR titration (CCL2 wild-type [1]): no binding
16 | CO[C@@H]1O[C@H](CO)[C@@H](O[C@@H]2O[C@H](CO)[C@H](O)[C@H](O)[C@H]2O)[C@H](O[C@@H]2O[C@@H](C)[C@@H](O)[C@@H](O)[C@@H]2O)[C@H]1NC(C)=O [Galβ1,4[Fucα1,3]GlcNAcβ1-OMe, Lewis X trisaccharide methyl glycoside] |  |  | Kd (CCL2 (Wild type)): 456000 nM
17 | GlcNAc1-3(GlcNAc1-4)(GlcNAc1-6)GlcNAc-Sp8 | 264 | 103.1 | 
18 | Man1-3(Man1-6)Man1-4GlcNAc1-4GlcNAc-Sp13 | 116 | 525.3 | 
19 | CO[C@@H]1O[C@H](CO)[C@@H](O[C@@H]2O[C@H](CO)[C@H](O)[C@H](O)[C@H]2O)[C@H](O[C@@H]2O[C@@H](C)[C@@H](O)[C@@H](O)[C@@H]2O)[C@H]1NC(C)=O [Galβ1,4[Fucα1,3]GlcNAcβ1-OMe] |  |  | drop in affinity (CCL2 wild-type [2]): ~300 fold
20 | [3OSO3]Gal1-4[6OSO3]GlcNAc-Sp8 | 333 | 101.0 | 
21 | CC(=O)N[C@H]1C(O)O[C@H](CO)[C@@H](O[C@@H]2O[C@H](CO)[C@H](O)[C@H](O[C@H]3O[C@H](CO)[C@H](O)[C@H](O)[C@H]3O)[C@H]2O)[C@@H]1O (stereo partly shown) [Gal1,3Gal1,4GlcNAc, Galα1,3Galβ1,4GlcNAc] |  |  | Kd (MOA): 42300 nM

Row | Molecule | RFU (relative fluorescence units) (CCL1) [RFU] | RFU (relative fluorescence units) (CCL2) [RFU] | other results
22 | [4OSO3][6OSO3]Gal1-4GlcNAc-Sp0 | 5 | 222.7 | 
23 | CO[C@@H]1O[C@H](CO)[C@@H](O[C@@H]2O[C@H](CO)[C@H](O)[C@H](O)[C@H]2O[C@@H]2O[C@@H](C)[C@@H](O)[C@@H](O)[C@@H]2O)[C@H](O)[C@H]1NC(C)=O [Fuc1,2Gal1,4GlcNAcOMe, Fucα1,2Galβ1,4GlcNAc methyl glycoside] |  |  | Kd (WBA II): 3200 nM
24 | C[C@@H]1O[C@@H](O[C@H]2C(O)O[C@H](CO)[C@H](O)[C@@H]2O[C@H]2O[C@H](CO)[C@H](O)[C@H](O)[C@H]2O)[C@@H](O)[C@H](O)[C@@H]1O (stereo partly shown) [Galα1,3[Fucα1,2]Gal, blood group B trisaccharide] |  |  | Kd (MOA): 36000 nM
25 | CO[C@H]1O[C@H](CO[C@H]2O[C@H](CO)[C@@H](O)[C@H](O)[C@@H]2O)[C@@H](O)[C@H](O[C@H]2O[C@H](CO)[C@@H](O)[C@H](O)[C@@H]2O)[C@@H]1O [Man1,6[Man1,3]ManOMe, Manα1,6[Manα1,3]Man methyl glycoside] |  |  | Kd (ConA): 2000 nM
26 | CO[C@@H]1O[C@@H](C)[C@@H](O)[C@@H](O)[C@@H]1O [FucOMe, methyl fucopyranoside] |  |  | Kd (RSL): 730 nM
27 | Gal1-3GlcNAc1-2Man1-3(Gal1-3GlcNAc1-2Man1-6)Man1-4GlcNAc1-4GlcNAc-Sp19 |  | 453.7 | 
28 | CO[C@@H]1O[C@H](CO)[C@@H](O)[C@H](O[C@@H]2O[C@@H](C)[C@@H](O)[C@@H](O)[C@@H]2O)[C@H]1NC(C)=O [Fucα1,3GlcNAc-OMe, Fucα1,3GlcNAc methyl glycoside] |  |  | Kd (CCL2 (Wild type)): > 500000 nM
29 | [4OSO3]Gal1-4GlcNAc-Sp8 | 17 | 350.4 | 
30 | GlcNAc1-2Man1-3(GlcNAc1-2Man1-6)Man1-4GlcNAc1-4GlcNAc-Sp13 | 68 | 674.3 | 
31 | [3OSO3]Gal1-3GlcNAc–Sp8 |  | 403.9 | 
32 | (Gal1-4GlcNAc)2-3,6-GalNAc-Sp8 |  | 397.4 | 
33 | Gal1-4GlcNAc1-2Man1-3(Gal1-4GlcNAc1-2Man1-6)Man1-4GlcNAc1- |  | 575.8 | 
34 | C[C@@H]1O[C@@H](OCCCN)[C@H](O)[C@H](O)[C@H]1O [-L-Rha-Sp8] |  | 112.5 | 
35 | Calreticulin |  |  | –TΔS [4]: 3.75 kcal/mol; –ΔH [4]: 12 kcal/mol; –TΔS [5]: -0.813 kcal/mol; –ΔH [5]: 7.15 kcal/mol
36 | CC(=O)NC1C(OC2C(CO)OC(O)C(O)C2O)OC(CO)C(OC2OC(CO)C(O)C(O)C2O)C1OC1OC(C)C(O)C(O)C1O (stereo not shown) [Galβ1,4[Fucα1,3]GlcNAcβ1,4Gal] |  |  | NMR titration (CCL2 wild-type [1]): large chemical shift deviations, slow to intermediate exchange
37 | [3OSO3]Gal1-4(6OSO3)Glc–Sp8 |  | 1039.1 | 
38 | 9NAcNeu5Ac-Sp8 |  | 8595.4 | 
39 | -GlcNAc–Sp8 |  | 160.7 | 
40 | CC(=O)N[C@H]1[C@H](O[C@@H]2[C@H](O[C@]3(C(=O)O)C[C@H](O)[C@@H](NC(C)=O)[C@H]([C@H](O)[C@H](O)CO)O3)[C@@H](O)[C@H](O[C@H]3[C@H](O)[C@@H](O)C(O)O[C@@H]3CO)O[C@@H]2CO)O[C@H](CO)[C@H](O)[C@@H]1O[C@@H]1O[C@H](CO)[C@H](O)[C@H](O)[C@H]1O (stereo partly shown) [GM1os, GM1 ganglioside oligosaccharide] |  |  | Kd [6]: 43 nM
41 | [3OSO3][6OSO3]Gal1-4GlcNAc-Sp0 | 25 | 193.4 | 
